# Reference: US20250326772A1, “MRGPRX2 ANTAGONISTS, PHARMACEUTICAL COMPOSITION INCLUDING MRGPRX2 ANTAGONIST, AND METHOD OF TREATING MRGPRX2-MEDIATED DISEASE OR DISORDER” (KYORIN PHARMACEUTICAL CO., LTD., priority 2024, published 2025)
# Biological target: T1, MRGPRX2 (Homo sapiens, UniProt Q96LB1)
# T1 sequence (Q96LB1 1-330): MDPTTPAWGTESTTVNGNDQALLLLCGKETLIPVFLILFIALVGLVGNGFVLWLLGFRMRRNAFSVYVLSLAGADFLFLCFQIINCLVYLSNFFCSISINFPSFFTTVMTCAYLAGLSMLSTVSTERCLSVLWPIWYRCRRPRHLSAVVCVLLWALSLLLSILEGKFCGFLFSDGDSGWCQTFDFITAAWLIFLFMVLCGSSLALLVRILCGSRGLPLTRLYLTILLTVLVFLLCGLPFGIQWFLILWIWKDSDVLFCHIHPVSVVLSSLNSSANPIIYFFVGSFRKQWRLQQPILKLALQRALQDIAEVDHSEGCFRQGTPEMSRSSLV
# Experiment: MRGPRX2 reporter cell assay (NFAT-RE luciferase, Substance P stimulation)
# Type: cell-based
# Conditions: U2OS cells stably transfected with MRGPRX2 and NFAT-RE luciferase reporter; Substance P at EC80
# Procedure: MRGPRX2 Reporter Cell Assays U2OS cells (ATCC, Manassas, VA) were stably transfected with MRGPRX2 expression clones (GeneCopoeia, Rockville, MD) and the pGL4.30 [luc2P/NFAT-RE/Hygro] reporter plasmid (Promega, Madison, WI). Clonal cells were maintained in Growth Media (McCoy's 5A, 10% FBS, 495 μg/ml hygromycin, 2 μg/ml puromycin, 100 units/ml penicillin, and 100 ug/ml streptomycin). The day before assay, cells were plated to white 384-well microplates at 3000 (MRGPRX2) cells/well in 10 ul Assay Media (McCoy's 5A, 2% charcoal dextran stripped FBS, 100 units/ml penicillin, and 100 ug/ml streptomycin) (Gibco, Thermo Fisher) and allowed to adhere overnight. The following day, serially diluted compound stocks were added directly to the cells (final DMSO concentration of 0.5%) and pre-incubated for 30 minutes at 37° C., 5% CO2. The final concentration of Substance P (Tocris, Minneapolis, MN, or PEPTIDE INSTITUTE, Osaka, Japan) corresponding to EC80 was added to stimulate the (MRGPRX2) cells. Cells were returned to the incubator for 6 hrs, after which 5 ul of ONE-GLO substrate (Promega) was added. Luminescence was read within 15 minutes (BioTek, Winooski, VT or infinite M1000Pro, Tecan Japan, Kanagawa, Japan). Percent inhibition for each test compound was calculated using the formula: […] where: • A=the luminescence count of the “test compound” well • B=the median luminescence count of the “Vehicle (0.5% DMSO)” wells • C═the median luminescence count of the “Vehicle (0.5% DMSO)+5 uM of substance P” wells The mean percent inhibition of each concentration of “test compound” was used to generate dose-response curves. IC50 values were calculated using a four-parameter logistic fit to the data using GraphPad Prism software. • +++: […]
row,Compound,IC50 [nM]
1,Cn1cc(-c2c(-c3c(C(F)F)nn4c3OCCC4)[nH]c3ncccc23)c(OC(F)F)n1 [EX. 272],2.9

# Same assay, conditions: U2OS cells stably transfected with MRGPRX2 and NFAT-RE luciferase reporter; Substance P at EC80; class symbols
row,Compound,IC50 [nM]
1,COc1ccc(C#N)c(-c2c(-c3c(C)nn4c(C)ccnc34)[nH]c3ncccc23)c1 [EX. 254],< 10
2,COc1ccc(C#N)c(-c2c(-c3c(C)nn4c3OCC(NC(=O)OC(C)(C)C)C4)[nH]c3ncccc23)c1 (centres unmarked) [EX. 256],< 10
3,COc1ccc(C#N)c(-c2c(-c3c(C(F)F)nn4c3OCC(NC(=O)OC(C)(C)C)C4)[nH]c3ncccc23)c1 (centres unmarked) [EX. 257],< 10
4,N#Cc1ccccc1-c1c(-c2n[nH]cc2C(F)(F)F)[nH]c2ncccc12 [EX. 264],< 10
5,[2H]C([2H])([2H])Oc1ccc(C#N)c(-c2c(-c3c(C)nn4cc(C)cnc34)[nH]c3ncccc23)c1 [EX. 266],< 10
6,Cn1cc(-c2[nH]c3ncccc3c2-c2ccccc2C#N)c(CF)n1 [EX. 270],< 10
7,N#Cc1ccccc1-c1c(-c2c(CF)nn3c2OCCC3)[nH]c2ncccc12 [EX. 271],< 10
8,Cn1cc(-c2c(-c3c(C(F)F)nn4c3OCCC4)[nH]c3ncccc23)c(OC(F)F)n1 [EX. 272],< 10
9,COc1ccc(C#N)c(-c2c(-c3nn(C)cc3C(F)F)[nH]c3ncccc23)c1 [EX. 281],< 10
10,Cc1cc(-c2c(-c3cn(C)nc3C(F)F)[nH]c3ncccc23)c(C#N)s1 [EX. 287],< 10
11,Cn1cc(-c2c(-c3cn(C)nc3C(F)F)[nH]c3ncccc23)c(OC(F)F)n1 [EX. 291],10 to 100
12,COc1ccc(F)cc1-c1[nH]c2ncccc2c1-c1cn(C)nc1C(F)F [EX. 292],100 to 1000
13,Cc1ccc(F)c(-c2c(-c3cn(C)nc3C(F)(F)F)[nH]c3ncccc23)c1 [EX. 299],< 10
14,Cn1cc(-c2[nH]c3ncccc3c2-c2cc(F)ccc2C#N)c(C(F)F)n1 [EX. 300],< 10
15,"COc1ccc(F)cc1-c1[nH]c2ncccc2c1C1=CCCCC1 [EX. 301, 3-(cyclohex-1-en-1-yl)-2-(5-fluoro-2-methoxyphenyl)-1H-pyrrolo[2,3-b]pyridine]",100 to 1000
16,COc1ccccc1-c1[nH]c2ncccc2c1-c1ccccc1C#N [EX. 307],< 10
17,COc1ccccc1-c1[nH]c2ncccc2c1-c1cc(C)ccc1F [EX. 314],< 10
18,COc1ccccc1-c1[nH]c2ncccc2c1-c1cc(C)ccc1C#N [EX. 316],< 10
19,COc1ccc(F)c(-c2c(-c3cc(F)ccc3OC)[nH]c3ncccc23)c1 [EX. 323],< 10
20,COc1ccc(F)cc1-c1[nH]c2ncccc2c1-c1cc(C)ccc1C#N [EX. 326],< 10
21,Cc1ccc(F)c(-c2c(-c3cc(F)ccc3O)[nH]c3ncccc23)c1 [EX. 344],< 10
22,COc1ccc(F)c(-c2c(-c3cc(F)ccc3OC)[nH]c3ncccc23)c1 [EX. 345],< 10
23,[2H]C([2H])([2H])Oc1ccc(F)cc1-c1[nH]c2ncccc2c1-c1ccccc1C#N [EX. 346],< 10
24,"COc1ccc(F)cc1-c1[nH]c2ncccc2c1C1=CC(C)(C)CCC1OC (centres unmarked) [EX. 351, 2-(5-fluoro-2-methoxyphenyl)-3-(6-methoxy-3,3-dimethylcyclohex-1-en-1-yl)-1H-pyrrolo[2,3-b]pyridine]",100 to 1000
25,"COc1ccc(C#N)c(-c2c(-c3c(C)nn4c3OCC(NC(C)=O)C4)[nH]c3ncccc23)c1 (centres unmarked) [EX. 354, N-[3-[3-(2-cyano-5-methoxy-phenyl)-1H-pyrrolo[2,3-b]pyridin-2-yl]-2-methyl-6,7-dihydro-5H-pyrazolo[5,1-b] [1,3]oxazin-6-yl]acetamide]",< 10
26,COc1ccc(C#N)c(-c2c(-c3c(C)nn4c3OCC(N)C4)[nH]c3ncccc23)c1 (centres unmarked) [EX. 355],< 10
27,COc1ccc(C#N)c(-c2c(-c3c(C)nn4c3OCC(NC(C)=O)C4)[nH]c3ncccc23)c1 (centres unmarked) [EX. 356],< 10
28,COc1ccc(C#N)c(-c2c(-c3c(C(F)F)nn4c3OCC(N)C4)[nH]c3ncccc23)c1 (centres unmarked) [EX. 357],< 10

row,Compound,IC50 [nM]
1,COc1ccc(C#N)c(-c2c(-c3c(C(F)F)nn4c3OCC(NC(C)=O)C4)[nH]c3ncccc23)c1 (centres unmarked) [EX. 358],< 10
2,COc1ccc(C#N)c(-c2c(-c3c(C)nn4c3OCC(N)C4)[nH]c3ncccc23)c1 (centres unmarked) [EX. 359],< 10
3,COc1ccc(C#N)c(-c2c(-c3c(C(F)F)nn4c3OC[C@H](N)C4)[nH]c3ncccc23)c1 [EX. 361],< 10
4,COc1ccc(C#N)c(-c2c(-c3c(C(F)F)nn4c3OC[C@H](NC(C)=O)C4)[nH]c3ncccc23)c1 [EX. 362],< 10
5,COc1ccc(C#N)c(-c2c(-c3c(C(F)F)nn4c3OC[C@@H](N)C4)[nH]c3ncccc23)c1 [EX. 363],< 10
6,COc1ccc(C#N)c(-c2c(-c3c(C(F)F)nn4c3OC[C@@H](NC(C)=O)C4)[nH]c3ncccc23)c1 [EX. 364],< 10
7,"[2H]C([2H])([2H])Oc1ccc(C#N)c(-c2c(-c3c(C)nn4c3OC[C@@H](O)C4)[nH]c3ncccc23)c1 [EX. 366, 2-[2-[(6S)-6-hydroxy-2-methyl-6,7-dihydro-5H-pyrazolo[5,1-b] [1,3]oxazin-3-yl]-1H-pyrrolo[2,3-b]pyridin-3-yl]-4-(trideuteriomethoxy)benzonitrile]",< 10
8,[2H]C([2H])([2H])Oc1ccc(C#N)c(-c2c(-c3c(C)nn4c3OCC(O)C4)[nH]c3ncccc23)c1 (centres unmarked) [EX. 367],< 10
9,COc1ccc(C#N)c(-c2c(-c3c(C(F)F)nn4c3OC[C@H](O)C4)[nH]c3ncccc23)c1 [EX. 368],< 10
10,COc1ccc(C#N)c(-c2c(-c3c(C(F)F)nn4c3OC[C@@H](O)C4)[nH]c3ncccc23)c1 [EX. 369],< 10
11,[2H]C([2H])([2H])Oc1ccc(C#N)c(-c2c(-c3c(C(F)F)nn4c3OC[C@H](O)C4)[nH]c3ncccc23)c1 [EX. 370],< 10
12,N#Cc1ccccc1-c1c(-c2c(C(F)F)nn3c2OC[C@H](O)C3)[nH]c2ncccc12 [EX. 371],< 10
13,"Cn1cc(-c2[nH]c3ncccc3c2-c2cc(Cl)ccc2C#N)c(C(F)F)n1 [EX. 375, 4-chloro-2-[2-[3-(difluoromethyl)-1-methyl-pyrazol-4-yl]-1 H-pyrrolo[2,3-b]pyridin-3-yl]benzonitrile]",< 10
14,[2H]C([2H])([2H])n1cc(-c2[nH]c3ncccc3c2-c2cc(OC)ccc2C#N)c(C(F)F)n1 [EX. 377],< 10
15,Cc1cc(-c2c(-c3cnn4c3OCCC4)[nH]c3ncccc23)c(C#N)s1 [EX. 380],10 to 100
16,"FC(F)Oc1nnccc1-c1c(-c2c(C(F)F)nn3c2OCCC3)[nH]c2ncccc12 [EX. 388, 3-(3-(3-(difluoromethoxy)pyridazin-4-yl)-1H-pyrrolo[2,3-b]pyridin-2-yl)-2-(difluoromethyl)-6,7-dihydro-5H-pyrazolo[5,1-b] [1,3]oxazine]",10 to 100
17,"FC(F)Oc1nnc(Cl)cc1-c1c(-c2c(C(F)F)nn3c2OCCC3)[nH]c2ncccc12 [EX. 389, 3-(3-(6-chloro-3-(difluoromethoxy)pyridazin-4-yl)-1H-pyrrolo[2,3-b]pyridin-2-yl)-2-(difluoromethyl)-6,7-dihydro-5H-pyrazolo[5,1-b] [1,3]oxazine]",10 to 100
18,"CCn1cc(-c2c(-c3c(C(F)F)nn4c3OCCC4)[nH]c3ncccc23)c(OC(F)F)n1 [EX. 400, 3-[3-[3-(difluoromethoxy)-1-ethyl-pyrazol-4-yl]-1H-pyrrolo[2,3-b]pyridin-2-yl]-2-(difluoromethyl)-6,7-dihydro-5H-pyrazolo[5,1-b] [1,3]oxazine]",10 to 100
19,Cn1cc(-c2c(-c3c(C(F)F)nn4c3OCCC4)[nH]c3ncccc23)c(C#N)n1 [EX. 401],< 10
20,FC(F)Oc1nscc1-c1c(-c2c(C(F)F)nn3c2OCCC3)[nH]c2ncccc12 [EX. 402],< 10
21,N#Cc1nscc1-c1c(-c2c(C(F)F)nn3c2OCCC3)[nH]c2ncccc12 [EX. 403],< 10
22,COc1nscc1-c1c(-c2c(C(F)F)nn3c2OCCC3)[nH]c2ncccc12 [EX. 404],10 to 100
23,FC(F)Oc1n[nH]cc1-c1c(-c2c(C(F)F)nn3c2OCCC3)[nH]c2ncccc12 [EX. 406],100 to 1000
24,FC(F)Oc1nocc1-c1c(-c2c(C(F)F)nn3c2OCCC3)[nH]c2ncccc12 [EX. 407],10 to 100
25,N#Cc1cnccc1-c1c(-c2c(C(F)F)nn3c2OCCC3)[nH]c2ncccc12 [EX. 408],< 10
26,N#Cc1nccnc1-c1c(-c2c(C(F)F)nn3c2OCCC3)[nH]c2ncccc12 [EX. 409],100 to 1000
27,FC(F)Oc1ncccc1-c1c(-c2c(C(F)F)nn3c2OCCC3)[nH]c2ncccc12 [EX. 410],< 10
